Legend:
FGF receptor = FGF receptor (Mus musculus, UniProt P16092); test: In vitro inhibition of bFGF binding (assay format not stated); conditions: inhibition of bFGF binding
FGFR-3 = target: T1, FGFR-3 (Homo sapiens, UniProt P22607); test: Binding of 125I-FGF9 to immobilized soluble FGFR-3 (FR-3-AP); conditions: FIG. 11
T1 construct: soluble FGFR-3 ectodomain alkaline phosphatase fusion protein (FR-3-AP); made in house; host or cells: NIH 3T3 cells (conditioned medium)
T1 sequence (P22607 23-375 limits assumed): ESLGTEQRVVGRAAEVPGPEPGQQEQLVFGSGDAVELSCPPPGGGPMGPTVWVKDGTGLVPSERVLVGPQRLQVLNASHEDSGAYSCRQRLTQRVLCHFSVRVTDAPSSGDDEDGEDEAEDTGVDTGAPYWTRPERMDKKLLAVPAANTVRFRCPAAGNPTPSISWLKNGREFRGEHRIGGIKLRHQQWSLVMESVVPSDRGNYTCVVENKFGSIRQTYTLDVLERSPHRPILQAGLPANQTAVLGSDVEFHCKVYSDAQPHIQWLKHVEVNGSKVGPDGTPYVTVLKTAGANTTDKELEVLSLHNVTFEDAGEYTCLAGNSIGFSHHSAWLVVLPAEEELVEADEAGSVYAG
Description: Incubations were performed in the presence of 100 ng/ml heparin and increasing concentrations of porphyrins. […] Results represent the mean value in one of at least two independent experiments.
(iii) Binding of ^125I-bFGF or ^125I-FGF9 to s luble FGFR-1 or FGFR-3. Conditioned medium from NIH 3T3 cells secreting soluble FRAP or FGFR-3 FR-3-AP, was incubated for 45 min at room temperature with rabbit anti-human placental AP antibodies (generated as described in Ornitz et al, 1991) prebound to agarose-protein A beads Pierce). The FGFR-1 or FGFR-3-coupled beads were washed three times with 1 ml HNTG and incubated with 2 ng/ml of ^125I-FGF, 1 μg/ml of heparin and porphyrin/corrole compound at different concentrations for 1 h at room temperature. High affinity-bound ^125I-bFGF was determined by counting of the samples in a γ-counter.
Thus, the compounds were tested for their capacity to inhibit binding of a soluble FGFR-3 ectodomain alkaline phosphatase fusion protein (FR-3-AP) to FGF-9, utilizing a cell free system, similar to the one described for FGFR-1 in Example 1 above, and measuring the binding of radiolabeled ^125I-FGF-9 to soluble FGFR-3.

[1] = system: microvascular tubules sprouting from rat aorta sections; test: Rat aorta in vitro angiogenesis assay (collagen gel, bFGF-induced); type: cell-based
Description: (vi) Rat aorta in vitro angiogenesis assay. Rings of rat aorta sections were immobilized in a three-dimensional collagen gel, in the presence of serum free growth medium (D/MEM) (Nicosia & Ottinetti, 1990). Porphyrin or corrole compound and bFGF (2 ng/ml) were added to the growth medium twice a week when indicated. After 14 days the cultures were fixed, and the extent of microvascular endothelial tube outgrowth was measured under a light microscope (Miao et al., 1997).
The effect of P1 was further examined in a biological assay for angiogenesis in vitro. Angiogenic vascularization is a process in which bFGF is known to play a pivotal role (Folkman, 1989). To examine the inhibitory effects of the porphyrin on bFGF-promoted angiogenesis, we employed an in vitro angiogenic assay using rat aorta sections embedded in a collagen gel (Methods, section (vi)). The assay measures the extent of endothelial cell growth and microvascular tubules sprouting from the vessel tissue embedded in the gel. Basal tubule formation can be detected even when no additional factors are added.

[2] = target: EGF tyrosine kinase receptor (Homo sapiens, UniProt P00533); test: Binding of EGF to its high affinity tyrosine kinase receptor
[3] = system: Lewis lung carcinoma (LLC) D122 cells; test: Lewis lung carcinoma primary tumor growth (foot pad); type: in vivo, C57 black mice; conditions: 25 μg/g of body mass IP twice a week
Description: (vii) Lewis lung carcinoma tumor assay. Murine Lewis lung carcinoma (LLC) D122 cells (1×10^6 cells/[…] PBS) were injected into the foot pads of 10-week old C57 black mice (O'Reilly et al, 1994). Twenty five μg/g of body mass of porphyrin or corrole compound dissolved in PBS were injected IP twice a week to the treated group, and tumor size was measured periodically in order to follow primary tumor formation. In order to evaluate inhibition of lung metastasis by porphyrin or corrole compound, the primary tumors were allowed to develop over a period of six weeks to a volume of approximately 8 mm^3; after which the tumors were removed and metastases were allowed to develop for four weeks. During this time the treated group received 25 μg/g of body mass of porphyrin or corrole compound IP twice a week. Subsequently the mice were sacrificed, dissected and the lungs removed and photographed. The extent of lung metastasis was measured by weighing the lungs.
Inhibition of primary tumor growth was tested using the well-established LLC murine tumor growth and metastasis model (Methods, section (vii)). LLC D122 cells (200,000 cells per mouse) were injected into the foot pads of 10-week old C57 black mice. […] The inhibition of the foot pad primary carcinoma tumor growth was statistically established and reproducible in five experiments.

VEGF receptor KDR = target: T2, VEGF receptor KDR (Homo sapiens, UniProt P35968); test: Binding of 125I-VEGF to endothelial cells transfected with VEGF receptor KDR; set-up: species or system bovine; conditions: FIG. 10A
T2 construct: expressed in transfected cells; host or cells: bovine aortic endothelial cells
Description: Binding of ^125I-VEGF to confluent monolayers of endothelial cells expressing KDR was performed as described in Methods, section (x), in the presence of increasing concentrations of P1 and of unlabeled VEGF; and
x) Binding of ^125I-VEGF to cells. Confluent cultures of bovine aortic endothelial cells transfected with the VEGF receptor KDR were tested for binding of radiolabeled ^125I-VEGF as described in method (iv) above for the FGFR-1 expressing cells.

T2 sequence (P35968 20-1356): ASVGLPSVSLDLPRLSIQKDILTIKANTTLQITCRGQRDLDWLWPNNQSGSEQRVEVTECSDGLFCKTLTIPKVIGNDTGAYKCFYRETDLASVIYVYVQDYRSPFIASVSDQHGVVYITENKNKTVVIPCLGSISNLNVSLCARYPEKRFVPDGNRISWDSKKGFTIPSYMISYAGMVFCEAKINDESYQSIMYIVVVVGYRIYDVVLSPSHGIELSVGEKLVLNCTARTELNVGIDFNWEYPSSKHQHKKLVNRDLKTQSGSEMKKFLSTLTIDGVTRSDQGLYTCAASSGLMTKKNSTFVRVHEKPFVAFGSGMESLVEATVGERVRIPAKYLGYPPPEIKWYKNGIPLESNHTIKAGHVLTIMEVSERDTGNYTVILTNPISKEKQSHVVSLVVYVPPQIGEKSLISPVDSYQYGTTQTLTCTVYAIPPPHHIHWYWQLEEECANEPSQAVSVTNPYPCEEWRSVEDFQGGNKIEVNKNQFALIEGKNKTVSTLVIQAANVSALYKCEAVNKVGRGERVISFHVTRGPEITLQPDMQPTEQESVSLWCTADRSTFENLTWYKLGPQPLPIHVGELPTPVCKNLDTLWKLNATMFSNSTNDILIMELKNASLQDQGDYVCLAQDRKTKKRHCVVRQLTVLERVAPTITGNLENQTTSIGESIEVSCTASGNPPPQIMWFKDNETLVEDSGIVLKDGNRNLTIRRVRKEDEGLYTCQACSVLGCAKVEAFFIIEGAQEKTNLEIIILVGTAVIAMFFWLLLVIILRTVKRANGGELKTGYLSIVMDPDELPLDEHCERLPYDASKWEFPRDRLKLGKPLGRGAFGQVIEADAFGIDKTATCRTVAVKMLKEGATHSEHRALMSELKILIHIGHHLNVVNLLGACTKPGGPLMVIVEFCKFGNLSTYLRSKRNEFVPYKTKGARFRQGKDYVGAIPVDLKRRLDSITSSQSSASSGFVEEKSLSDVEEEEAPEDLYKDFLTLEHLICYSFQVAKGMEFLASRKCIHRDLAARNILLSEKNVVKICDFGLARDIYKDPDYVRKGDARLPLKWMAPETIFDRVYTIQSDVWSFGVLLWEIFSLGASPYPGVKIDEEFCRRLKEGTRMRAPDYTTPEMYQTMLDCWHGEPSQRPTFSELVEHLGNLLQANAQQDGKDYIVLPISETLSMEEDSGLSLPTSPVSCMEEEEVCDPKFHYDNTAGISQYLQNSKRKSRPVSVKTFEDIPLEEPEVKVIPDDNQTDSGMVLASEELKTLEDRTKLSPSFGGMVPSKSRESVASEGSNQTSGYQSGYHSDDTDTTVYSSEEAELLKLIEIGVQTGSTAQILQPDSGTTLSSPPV
Sequence of FGF receptor (P16092 22-822): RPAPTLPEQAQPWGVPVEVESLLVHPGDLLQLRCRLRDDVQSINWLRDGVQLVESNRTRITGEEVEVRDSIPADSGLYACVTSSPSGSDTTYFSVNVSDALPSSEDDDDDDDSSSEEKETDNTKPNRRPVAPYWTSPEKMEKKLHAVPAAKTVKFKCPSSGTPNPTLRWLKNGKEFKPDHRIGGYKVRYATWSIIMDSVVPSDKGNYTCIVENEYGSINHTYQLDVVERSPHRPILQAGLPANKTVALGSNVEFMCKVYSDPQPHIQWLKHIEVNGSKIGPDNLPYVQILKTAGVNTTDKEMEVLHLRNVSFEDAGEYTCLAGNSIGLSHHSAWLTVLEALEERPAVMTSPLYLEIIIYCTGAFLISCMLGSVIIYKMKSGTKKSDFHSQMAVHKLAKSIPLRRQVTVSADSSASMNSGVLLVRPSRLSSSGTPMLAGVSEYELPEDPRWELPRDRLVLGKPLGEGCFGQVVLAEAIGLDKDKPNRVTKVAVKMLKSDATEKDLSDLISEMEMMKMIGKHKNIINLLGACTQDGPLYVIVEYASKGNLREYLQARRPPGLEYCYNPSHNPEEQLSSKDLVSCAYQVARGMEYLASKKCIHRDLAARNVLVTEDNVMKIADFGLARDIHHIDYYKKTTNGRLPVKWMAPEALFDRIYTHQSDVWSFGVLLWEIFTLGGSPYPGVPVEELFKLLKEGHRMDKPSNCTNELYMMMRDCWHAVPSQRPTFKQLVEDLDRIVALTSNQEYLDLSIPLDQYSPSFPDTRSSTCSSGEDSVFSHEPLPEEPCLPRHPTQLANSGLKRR
Sequence of EGF tyrosine kinase receptor (P00533 25-1210): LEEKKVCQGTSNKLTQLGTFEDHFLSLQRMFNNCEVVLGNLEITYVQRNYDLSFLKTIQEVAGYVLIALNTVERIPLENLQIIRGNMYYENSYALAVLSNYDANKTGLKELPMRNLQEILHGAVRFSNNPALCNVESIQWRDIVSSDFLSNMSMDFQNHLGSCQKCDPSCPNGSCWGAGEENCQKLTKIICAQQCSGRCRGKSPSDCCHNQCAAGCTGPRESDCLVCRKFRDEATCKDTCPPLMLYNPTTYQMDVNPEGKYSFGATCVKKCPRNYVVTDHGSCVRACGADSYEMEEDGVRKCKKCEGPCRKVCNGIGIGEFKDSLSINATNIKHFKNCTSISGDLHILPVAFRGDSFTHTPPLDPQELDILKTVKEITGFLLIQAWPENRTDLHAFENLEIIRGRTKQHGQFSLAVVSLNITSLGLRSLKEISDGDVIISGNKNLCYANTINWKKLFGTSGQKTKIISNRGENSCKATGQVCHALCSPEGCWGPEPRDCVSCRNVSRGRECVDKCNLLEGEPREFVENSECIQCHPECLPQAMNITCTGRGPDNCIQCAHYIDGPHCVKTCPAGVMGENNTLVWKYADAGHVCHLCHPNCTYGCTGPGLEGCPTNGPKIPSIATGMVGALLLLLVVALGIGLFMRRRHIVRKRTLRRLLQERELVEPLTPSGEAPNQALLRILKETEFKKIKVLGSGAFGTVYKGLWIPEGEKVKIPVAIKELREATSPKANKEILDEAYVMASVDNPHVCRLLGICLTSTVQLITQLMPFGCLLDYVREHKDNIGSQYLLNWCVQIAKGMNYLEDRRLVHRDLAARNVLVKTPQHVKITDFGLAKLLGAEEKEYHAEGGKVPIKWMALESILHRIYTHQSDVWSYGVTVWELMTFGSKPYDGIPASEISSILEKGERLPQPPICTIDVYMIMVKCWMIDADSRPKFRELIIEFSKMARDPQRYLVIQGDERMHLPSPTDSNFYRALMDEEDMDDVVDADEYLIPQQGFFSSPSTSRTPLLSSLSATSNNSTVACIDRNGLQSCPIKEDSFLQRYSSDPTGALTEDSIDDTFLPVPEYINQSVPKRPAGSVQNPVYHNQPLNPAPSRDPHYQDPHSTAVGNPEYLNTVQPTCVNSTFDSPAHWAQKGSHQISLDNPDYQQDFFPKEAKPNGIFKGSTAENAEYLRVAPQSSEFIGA

Activity in vitro relative to P1 (fold) (FGF receptor) | Relative potency in FGF-9/FGFR-3 soluble receptor assay, in words (FGFR-3) | Compound | Effect on bFGF-induced endothelial cell growth ([1]; 10 μM, with 2 ng/ml bFGF) | Effect on microvascular tubules ([1]; 100 μl P1, with 2 ng/ml bFGF) | Inhibition of EGF binding to its receptor [2] | Inhibition of primary tumor growth in LLC model, in words [3] | Inhibition of 125I-VEGF binding to KDR/flk-1 expressing cells, in words (VEGF receptor KDR)
about 50 fold | more potent | C[n+]1ccc(-c2c3nc(c(-c4cc[n+](C)cc4)c4ccc([nH]4)c(-c4c(F)c(F)c(F)c(F)c4F)c4nc(c(-c5cc[n+](C)cc5)c5ccc2[nH]5)C=C4)C=C3)cc1.[I-].[I-].[I-] [Compound P16, 5-Pentafluorophenyl-10,15,20-tris(N-methyl-4-pyridylium)-21H,23H-porphine triiodide] | – | – | – | – | –
– | – | C[n+]1ccc(-c2c3nc(c(-c4cc[n+](C)cc4)c4ccc([nH]4)c(-c4cc[n+](C)cc4)c4nc(c(-c5cc[n+](C)cc5)c5ccc2[nH]5)C=C4)C=C3)cc1 [Compound P1, 5,10,15,20-Tetrakis(N-methyl-4-pyridylium)-21H,23H-porphine tetra-p-tosylate] | dramatically reduced the extent of endothelial cell growth | complete inhibition of microvascular tubules | does not inhibit | marked inhibition in primary tumor growth | efficiently inhibits

Source: patent US6730666B1, “Pharmaceutical compositions comprising porphyrins and some novel porphyrin derivatives” (Yeda Research and Development Co. Ltd., priority 1998, dated 2004)
